Assay [1] has as its system Par-4/D2DR association. The experiment in a line: Co-immunoprecipitation of Par-4 with D2DR-EGFP in the stable D2DR-EGFP cell line. Format: cell-based, human.
Assay [2] deals with dopamine-mediated cAMP signaling. The experiment in a line: cAMP accumulation in cultured primary striatal neurons from wild type and Par-4ΔLZ embryos (cAMP EIA). In kind it is cell-based, mouse. As to conditions: for upregulation of cAMP signaling comparable to that with dopamine: Par-4ΔLZ striatal neurons. As for the experimental part: DIV 11-14 neurons cultured in 24 well-plates were replaced with neurobasal media supplemented with 10 mM HEPES (pH7.4) containing drugs indicated for 50 min at room temperature, cells were lysed in 200 μl of 0.1M HCl solution for 15 min with gentle shaking and spun in the microcentrifuge tubes. cAMP concentration of the supernatant was measured using the cAMP-Enzyme Immunoassay Kit (Assay Designs) following manufacture's instructions. Concentrations of cAMP were normalized using protein concentrations measured by Biorad Protein Assay System (Bio-rad).
A general note: Cyclic AMP is a second messenger, typically raised through Gs and lowered through Gi signalling.

Assay [3] has as its target T1, D2i3 (third intracellular loop of the long isoform of human D2DR) (Homo sapiens, UniProt P14416).
T1 construct: A long isoform of D2i3 (amino acid 212-373) was amplified from a human D2DR cDNA clone; made in house; host or cells: E. coli BL21
T1 sequence (P14416 212-241): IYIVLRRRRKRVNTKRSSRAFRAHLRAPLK
The experiment in a line: In vitro binding assay with purified GST-D2i3 and Par-4LZ proteins. As to conditions: in the presence of Ca2+. As for the experimental part:
(§1) pPC97-D2i3 and pPC86-Par-4LZ plasmids were digested with SalI and NotI and cloned into pGEX4T-2 (Amersham-Pharmacia) using the same restriction sites to make GST-D2i3 and GST-Par-4LZ fusion proteins, respectively. GST-fusion proteins were expressed in BL21 bacteria and purified following manufacturer's instruction. For the in vitro binding assay, 500 nmoles of GST-Par-4LZ fusion protein in PBS was digested with 0.2 NIH units of thrombin (Sigma) for 2 hours at room temperature and the reaction was stopped by adding PMSF (10 μM, Sigma) and incubated for an additional 1 hour at 4° C. The GST portion of the digested protein was removed by glutathione sepharose (Amersham-Pharmacia). The supernatant was equilibrated to final 1× binding buffer (200 mM NaCl, 0.2% Triton X-100, 0.2mg/ml BSA and 50 mM Tris, pH 7.5). Binding reaction was initiated by adding 500 nmoles of GST-D2i3 (50 nM of GST-D2i3^221-241 in the competition assay) to Par-4LZ protein in the 1× binding buffer and incubated for 2-3 hours at 4° C. GST-D2i3 was precipitated using 100 μl of 10% glutathione sepharose in 1× binding buffer. The precipitate was washed 3 times with 1× binding buffer and resuspended in 2× SDS sample loading buffer.

The test system of assay [4] is Par-4 nuclear translocation. The experiment in a line: Par-4 nuclear translocation in cultured striatal neurons. Format: cell-based. As to conditions: activation of glutamate receptors.
For assay [5], the target named is GST-D2i3 (GST fusion of the third intracellular loop of the long isoform of human D2DR, amino acid residues 212-373) (human). The experiment in a line: in vitro GST pull-down with purified proteins.
Assay [6] has as its system CREB S133 phosphorylation. The method, then:
The cells were mechanically dissociated by triturating with a fine polished glass pipette, diluted in Neurobasal media (Invitrogen) supplemented with 10% horse serum and 10 mM HEPES (pH7.2), and plated in a dish coated with poly-D-lysine (Sigma) and laminin (Sigma). Cultured DIV12-13 mouse neurons were lysed for 30 min at 4° C. with gentle shaking in the extraction buffer (50 mM Tris pH8.0, 50 mM NaCl, 1.0% NP-40, 0.5% sodium deoxycholate, 0.1% SDS, 1 mM EDTA, 1 mM EGTA, 1 mM NaF, 20 mM Na4P2O7, 2 mM Na3VO4, 10% glycerol) supplemented with protease inhibitor cocktail (Sigma). Cell lysates were centrifuged for 15 min at 12,000 g at 4° C. and the supernatants were applied to ELISA using the Immunoassay kits for total CREB and […] phospho-CREB (Biosource) following the manufacturer's instruction.

Assay [7] addresses T2, D2i3 (third intracellular loop of the long isoform of human D2DR) (Homo sapiens, UniProt P14416).
T2 construct: A long isoform of D2i3 (amino acid 212-373) was amplified from a human D2DR cDNA clone; made in house; host or cells: E. coli BL21
T2 sequence (P14416 212-373): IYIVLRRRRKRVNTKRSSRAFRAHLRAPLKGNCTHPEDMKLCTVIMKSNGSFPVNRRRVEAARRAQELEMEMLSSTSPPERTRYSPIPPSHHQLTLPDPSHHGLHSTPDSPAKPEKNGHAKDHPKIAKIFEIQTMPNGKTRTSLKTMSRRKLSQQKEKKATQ
The assay is described as follows: In vitro binding assay with purified GST-D2i3 and Par-4LZ proteins. As to conditions: equimolar amount of GST-D2i3 protein. The method, then: as §1

As for `C[C@H](CCC(=O)O)C[C@H](C)C[C@H](C)C(=O)/C=C(\O)[C@H](C)C[C@H](C)C/C=C/[C@@H](C)[C@@H](O)[C@@H](C)[C@@H](O)C[C@@H]1CC[C@@](C)([C@H]2CC[C@@](C)([C@@H](C)O)O2)O1` [ionomycin], in assay [1], the “co-immunoprecipitation of Par-4 with D2DR-EGFP” value is reported as “significantly reduced”.

On to `C/C=C(/C)C(=O)O[C@H]1C(C)=C2[C@H]([C@@H]1OC(=O)CCCCCCC)[C@@](C)(OC(C)=O)C[C@H](OC(=O)CCC)[C@@]1(O)[C@H]2OC(=O)[C@@]1(C)O` [thapsigargin], for which the “co-immunoprecipitation of Par-4 with D2DR-EGFP” value in assay [1] was “significantly reduced”.

Consider `NC[C@H](O)c1ccc(O)c(O)c1` [norepinephrine], for which the “upregulation of cAMP signaling comparable to that with dopamine” value in assay [2] is on record as “not detected”.

On to calmodulin, for which the “interaction of Par-4LZ with D2i3 in the presence of increasing calmodulin levels” value in assay [3] is listed as “effectively interfered”.

Consider `NCCc1c[nH]c2ccc(O)cc12` [serotonin], for which the “upregulation of cAMP signaling comparable to that with dopamine” value in assay [2] is listed as “not detected”.

For the molecule `N[C@@H](CCC(=O)O)C(=O)O` [glutamate], the “nuclear translocation of Par-4” value in assay [4] is given as “induce nuclear translocation”.

“Par-4LZ protein (purified; human Par-4 amino acid residues 245-342, leucine zipper domain)”: the percent of total protein pulled down in assay [5] was 50%.

For the molecule `NCCc1ccc(O)c(O)c1` [dopamine], the cAMP levels entry in assay [2] (Par-4ΔLZ mutant neurons, 1-10 μM of dopamine) is listed as “markedly elevated”. Further, the “dopamine-induced downregulation of CREB S133 phosphorylation” value in assay [6] (Par-4ΔLZ neurons) was “not observed”. Also, the “CREB S133 phosphorylation” value in assay [6] (wild type neurons, dose-dependent) is reported as “significantly decreased”.

For the molecule `CCN1CCCC1CNC(=O)c1cc(S(N)(=O)=O)ccc1OC` (stereo not shown) [sulpiride], the “cAMP response to dopamine” value in assay [2] (Par-4ΔLZ neurons, co-treated with dopamine) is listed as “no such effect”; in assay [2] (wild type neurons, co-treated with 1-10 μM dopamine), “enhanced”.

B1: Par-4LZ: human Par-4 amino acid residues 245-342 that harbor the leucine zipper domain (protein)
chain: DRSGFPRYNRDANVSGTLVSSSTLEKKIEDLEKEVVRERQENLRLVRLMQDKEEMIGKLKEEIDLLNRDLDDIEDENEQLKQENKTLLKVVGQLTR
With B1, the “fraction of total Par-4LZ protein pulled down by GST-D2i3” value in assay [7] is “Approximately 50%”.

These data come from patent publication US20090111733A1, “PAR-4 RELATED METHODS AND COMPOSITIONS” (President and Fellows of Harvard College, priority 2006, published 2009).
